Source: ChEMBL document CHEMBL1134199, “Peptoids as endothelin receptor antagonists” (Bioorg Med Chem Lett, 2001)

Tests used:
Endothelin-1 receptor = molecular target: T1, Endothelin-1 receptor (Sus scrofa, UniProt Q29010); test: Ability to bind with Endothelin A receptor competitively in the presence of (125 I) endothelin using receptor binding assay.
T1 sequence (Q29010 whole entry): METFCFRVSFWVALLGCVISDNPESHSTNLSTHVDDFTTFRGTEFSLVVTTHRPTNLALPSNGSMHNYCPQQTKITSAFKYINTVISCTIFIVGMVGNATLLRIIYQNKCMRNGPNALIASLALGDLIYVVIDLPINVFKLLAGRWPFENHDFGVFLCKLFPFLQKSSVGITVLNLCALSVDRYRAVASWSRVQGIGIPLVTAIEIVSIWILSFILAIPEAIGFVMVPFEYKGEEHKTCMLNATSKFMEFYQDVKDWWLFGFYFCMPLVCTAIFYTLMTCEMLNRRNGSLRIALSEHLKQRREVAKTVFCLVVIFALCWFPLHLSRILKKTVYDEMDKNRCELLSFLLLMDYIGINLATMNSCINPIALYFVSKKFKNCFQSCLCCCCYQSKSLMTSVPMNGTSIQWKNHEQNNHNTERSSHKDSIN

[1] = molecular target: T2, Endothelin receptor type B (Sus scrofa, UniProt P35463); test: Ability to bind with Endothelin B receptor competitively in the presence of (125 I) endothelin using receptor binding assay.
T2 sequence (P35463 whole entry): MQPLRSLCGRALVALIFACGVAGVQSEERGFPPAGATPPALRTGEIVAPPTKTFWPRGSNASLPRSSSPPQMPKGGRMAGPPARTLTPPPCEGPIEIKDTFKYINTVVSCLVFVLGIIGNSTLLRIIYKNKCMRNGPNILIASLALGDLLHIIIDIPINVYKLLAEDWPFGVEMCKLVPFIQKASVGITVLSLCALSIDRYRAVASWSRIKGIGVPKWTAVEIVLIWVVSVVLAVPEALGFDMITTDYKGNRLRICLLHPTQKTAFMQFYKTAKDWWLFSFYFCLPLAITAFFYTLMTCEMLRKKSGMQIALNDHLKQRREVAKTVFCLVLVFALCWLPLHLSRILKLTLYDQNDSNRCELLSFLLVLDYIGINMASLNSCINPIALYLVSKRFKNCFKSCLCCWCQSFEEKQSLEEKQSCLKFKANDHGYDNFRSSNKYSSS

| SMILES | IC50 (Endothelin-1 receptor) [µM] | IC50 [1] [µM] |
| --- | --- | --- |
| COc1cccc(CN(C(=O)/C=C/c2ccc3c(c2)OCO3)C(Cc2ccc(O)cc2)C(=O)O)c1 (stereo not given) | 31 |  |
| CCOC(=O)CN(Cc1cc2c(cc1Cl)OCO2)C(Cc1ccc(O)cc1)C(=O)O (stereo not given) | 21.3 | 55 |
| COc1ccc(CN(C(=O)/C=C/c2ccc3c(c2)OCO3)C(Cc2c[nH]c3ccccc23)C(=O)O)cc1 (stereo not given) | 10 | 0.47 |
| O=C(O)C(Cc1ccc(O)cc1)N(Cc1cc2c(cc1Cl)OCO2)C(=O)/C=C/c1ccc2c(c1)OCO2 (stereo not given) | 38 | 66 |
| COc1ccc(CN(Cc2cc(OC)c(OC)c(OC)c2)C(Cc2c[nH]c3ccccc23)C(=O)O)cc1 (stereo not given) | 42 | 35 |
| COc1ccc(CN(Cc2cc3c(cc2Cl)OCO3)C(Cc2ccc(O)cc2)C(=O)O)cc1 (stereo not given) | > 100 | 5.5 |
| COc1ccc(CN(C(=O)c2ccc(OC)cc2)C(Cc2c[nH]c3ccccc23)C(=O)O)cc1 (stereo not given) | > 100 | > 100 |
| O=C(O)C(Cc1c[nH]c2ccccc12)N(Cc1cc2c(cc1Cl)OCO2)Cc1cc2c(cc1Cl)OCO2 (stereo not given) | 16.3 | 6.7 |

More lines, now with the values ahead:

| IC50 (Endothelin-1 receptor) [µM] | IC50 [1] [µM] | SMILES |
| --- | --- | --- |
| 27 | 6.4 | COc1ccc(CN(C(=O)/C=C/c2ccc3c(c2)OCO3)C(Cc2ccccc2)C(=O)O)cc1 (stereo not given) |
| 8.9 | 0.66 | O=C(O)C(Cc1c[nH]c2ccccc12)N(Cc1cc2c(cc1Cl)OCO2)C(=O)/C=C/c1ccc2c(c1)OCO2 (stereo not given) |
| 36 |  | COc1ccc(CN(Cc2cc(OC)cc(OC)c2)C(Cc2ccc(O)cc2)C(=O)O)cc1 (stereo not given) |
| 6 | 12.6 | COc1ccc(CN(C(=O)/C=C/c2ccc3c(c2)OCO3)C(Cc2ccc(O)cc2)C(=O)O)cc1 (stereo not given) |
|  | 19 | COc1ccc(CC(C(=O)O)N(Cc2ccc(OC)cc2)Cc2cc(OC)c(OC)c(OC)c2)cc1 (stereo not given) |
| 30 | 49 | COc1ccc(C(=O)N(Cc2cc3c(cc2Cl)OCO3)C(Cc2c[nH]c3ccccc23)C(=O)O)cc1 (stereo not given) |
